Measurements as given in US20220251504A1, “FUNCTIONAL ASTROCYTES DERIVED FROM PLURIPOTENT STEM CELLS AND METHODS OF MAKING AND USING THE SAME” (New York Stem Cell Foundation, Inc., priority 2019, published 2022).

Tests used:
Type in all cases: cell-based, human
CD49f^+ astrocytes = assay: Intracellular Ca2+ imaging of hiPSC-astrocytes after ATP application; settings: 100 μM ATP, 60s application
Source text: See also FIG. 32. […] Bar graphs show the maximum number of evoked spikes per 1 second stimulus (n=8/18), the maximum firing frequency in hertz (Hz) (n=5/15), the amplitude adaptation ratio between first and last action potential (n=5/15), the maximum action potential height (mV) (n=8/17), and the frequency of spontaneous excitatory post-synaptic currents (Hz) (n=5/9) in hiPSC-neurons at day 50 when cultured alone vs. with astrocytes during days 33-50. Dots correspond to 3 different lines. Each dot represents an independent cell. n=neurons alone/neurons co-cultured with astrocytes. Error bars show mean±standard deviation. p-values were calculated using a two-tailed, unpaired t-test. […] Scale bar, 50 μm. […] Error bars show mean±standard deviation (n=3 technical replicates). p-values were calculated using a two-tailed, unpaired t-test. […] Error bars show mean±standard deviation (n=4 technical replicates). p-values were calculated using a one-way ANOVA with Dunnett's correction for multiple comparisons. […] Error bars show mean±standard deviation. p-values were calculated using a one-way ANOVA with Dunnett's correction for multiple comparisons.
CD49f^+ astrocytes from three iPSC lines were cultured on glass coverslips coated with 0.1 mg/ml poly-L-ornithine followed by 10 μg/ml laminin. […] Fluorescence was recorded at 2 Hz by a cooled CCD camera (Hamamatsu™ Orca R^2). […]

[1] = tested on: OLIG2-GFP knock-in hESC reporter line; assay: OLIG2-GFP expression by flow cytometry during differentiation of hESC reporter line; settings: RA 100 nM from beginning of induction, SHH 100 ng/ml from day 8, or SAG replacing SHH, added to RA
Protocol: RA at a concentration of 100 nM from day 0 results in the highest yield of GFP^+ cells. […] Negative: human embryonic stem cell (hESC) line RUES1. […] Error bars are SEM (N=3). […] Only GFP^+ cells form spheres, providing enrichment to the GFP^+ population.
An OLIG2-GFP knock-in hESC reporter line was used to track OLIG2^+ progenitors by live fluorescent imaging. First, PAX6^+ cells were induced using dual inhibition of SMAD signaling in adherent cultures. Next, to mimic the embryonic spinal cord environment, different concentrations of RA and/or SHH were applied at various times and quantified OLIG2-GFP expression through flow cytometry (FIG. 2A).
At day 12, cells were detached and placed into low-attachment plates to promote their aggregation into spheres. The minimum number of cells required to form a sphere was at least 100 cells, and we noted that the majority of cells in the spheres were GFP^+. […]
(§1) Cells were enzymatically harvested by Accutase™ treatment for 25 minutes at 37° C. to obtain a single cell suspension. Cells were then re-suspended in 100 μl of their respective medium containing the appropriate amount of either primary antibody or fluorescence-conjugated antibodies and were incubated on ice for 30 minutes shielded from light. […] Flow cytometry data were analyzed using BD FACSDiva™ software.

O4^+ cells = assay: FACS analysis for O4+ cells at day 75 of differentiation; settings: RA only vs RA and SAG in the first 12 days of differentiation
Protocol: Endogenous SHH levels are higher in the samples that were not exposed to SHH/SAG. Error bars are SEM (N=3). […] Negative Control: APC-conjugated secondary antibody only. […] A substantial population of GFP^+ cells is present only under the dual inhibition of SMAD proteins, indicating a synergistic effect between RA and the dual inhibition of SMAD. DSi: Dual SMAD inhibition; SB: SB431542; LDN: […].
Spheres were plated on pO/L plates, as described above, in PDGF Medium at day 30, changing 2/3 of the PDGF Medium every other day until day 75 of differentiation. The appearance of O4^+ cells was assessed by live O4 staining from day 55 onwards (FIG. 6). At day 75, O4+ OPCs could be isolated by FACS (FIG. 7I). Alternatively, for terminal oligodendrocyte differentiation (FIG. 7G, 7H), cells were cultured in Glial Medium from day 75, changing 2/3 of the medium every 3 days for two weeks.
as §1

Row | Compound | [Ca^2+]i response to extracellular ATP (CD49f^+ astrocytes) | OLIG2^+ progenitors [1] [%] | decrease in the O4^+ population in cells not provided with SAG (O4^+ cells) [%]
1 | Nc1ncnc2c1ncn2[C@@H]1O[C@H](COP(=O)(O)OP(=O)(O)OP(=O)(O)O)[C@@H](O)[C@H]1O [ATP] | robustly responded |  | 
2 | CC1=C(/C=C/C(C)=C/C=C/C(C)=C/C(=O)O)C(C)(C)CCC1 [RA, all trans retinoic acid] |  | 40.6 | 
3 | CNC1CCC(N(Cc2cccc(-c3ccncc3)c2)C(=O)c2sc3ccccc3c2Cl)CC1 (stereo not shown) [SAG] |  | 70.1 | 56
